The values below come from publication PMC8621172, “Manipulating Estrogenic/Anti-Estrogenic Activity of Triphenylethylenes towards Development of Novel Anti-Neoplastic SERMs” (International Journal of Molecular Sciences, 2021).

The term inhibition denotes the relative decrease from the control value, in per cent. High values mean a strong effect, low ones a weak effect. What is called GI50 is the concentration that inhibits growth by half.

For one experiment, the system named is 60 NCI tumor cell lines. The experiment is described as follows: NCI-60 single-dose growth inhibition screen (SRB). The settings on record: for inhibition at 10 µM: Homo sapiens, mean over 60 NCI tumor cell lines; for anti-proliferative activity (in words): 10 µM, NCI-60 panel and MCF-7. In kind it is cell-based, human. On the procedure: The anti-proliferative effects of the novel analogs were tested in vitro by the National Cancer Institute (NCI) on a panel of 60 human tumor cell lines at 10 µM. Compounds that elicited mean growth inhibition ≥50% were selected by the NCI for 5-dose testing.
(§1) Compounds were submitted to the Developmental Therapeutics Program (DTP) of the National Cancer Institute (NCI). The program uses a panel of 60 human tumor cell lines representing nine tissue types, including leukemia, non-small cell lung cancer (NSCLC), melanoma, colon cancer, ovarian cancer, CNS cancer, renal cancer, prostate cancer, and breast cancer, to screen for potential new anti-cancer agents. […] Primary screening of synthesized compounds was performed by testing a single high dose of 10 µM in the full NCI-60 panel. The percent growth of treated cells relative to the no-drug control and relative to the time zero number of cells was measured, and a mean graph was provided. The percentage inhibition was then calculated by subtracting the values obtained from 100.
(§2) All compounds were subjected to the NCI in vitro disease-oriented human cells screening panel assay. The human tumor cell lines of the cancer-screening panel are grown in RPMI 1640 medium containing 5% fetal bovine serum and 2 mM L-glutamine. For a typical screening experiment, cells are inoculated into 96-well microtiter plates in 100 μL at plating densities ranging from 5000 to 40,000 cells/well depending on the doubling time of individual cell lines. After cell inoculation, the microtiter plates are incubated at 37 °C, 5% CO2, 95% air, and 100% relative humidity for 24 h prior to the addition of experimental drugs. After 24 h, two plates of each cell line are fixed in situ with TCA to represent a measurement of the cell population for each cell line at the time of drug addition. Experimental drugs are solubilized in dimethyl sulfoxide at 400-fold the desired final maximum test concentration and stored frozen prior to use. At the time of drug addition, an aliquot of frozen concentrate is thawed and diluted to twice the desired final maximum test concentration with complete medium containing 50 μg/mL gentamicin. Additional four, 10-fold, or ½ log serial dilutions are made to provide a total of five drug concentrations plus control. Aliquots of 100 μL of these different drug dilutions are added to the appropriate microtiter wells already containing 100 μL of medium, resulting in the required final drug concentrations. Following drug addition, the plates are incubated for an additional 48 h at 37 °C, 5% CO2, 95% air, and 100% relative humidity. For adherent cells, the assay is terminated by the addition of cold TCA. Cells are fixed in situ by the gentle addition of 50 μL of cold 50% (w/v) TCA (final concentration, 10% TCA) and incubated for 60 min at 4 °C. The supernatant is discarded, and the plates are washed five times with tap water and air-dried. Sulforhodamine B (SRB) solution (100 μL) at 0.4% (w/v) in 1% acetic acid is added to each well, and plates are incubated for 10 min at room temperature. After staining, unbound dye is removed by washing five times with 1% acetic acid, and the plates are air-dried. Bound stain is subsequently solubilized with a 10 mM trizma base, and the absorbance is read on an automated plate reader at a wavelength of 515 nm. For suspension cells, the methodology is the same except that the assay is terminated by fixing settled cells at the bottom of the wells by gently adding 50 μL of 80% TCA (final concentration, 16% TCA). Compounds are screened at a dose of 10 µM, hits showing mean growth inhibition over 60 cell lines >50% are escalated for 5-dose screening assay.

A further experiment concerns MCF-7 cells. The experiment is described as follows: NCI growth inhibition on MCF-7 (single dose and five-dose, SRB). In kind it is cell-based, human. The conditions noted are these: for inhibition at 10 µM / GI50: Homo sapiens, MCF7; for GI50: MCF-7, five-dose assay, 48 h; for inhibition at 10 µM / Growth Inhibition on MCF-7 (%): 10 µM. As for the experimental part:
as §1
as §2, with “screening assay. To construct a dose-response curve, about 60 cell lines of nine tumor subpanels were incubated with five concentrations (0.01–100 μM) for each compound. Three response parameters (GI50, TGI, and LC50) were calculated for each cell line.” for “screening assay.”

In the case of `COc1ccc(C(C)=C(c2ccc(Cl)cc2)c2ccc(OCCN3CCCC3)cc2)cc1F` [Compound 16, E/Z-1-(2-{4-[1-(4-Chlorophenyl)-2-(3-fluoro-4-methoxyphenyl)-propenyl]-phenoxy}-ethyl)-pyrrolidine], the inhibition at 10 µM with 60 NCI tumor cell lines is 77.2%; in the experiment with MCF-7 cells, 90%. The compound further registered a GI50 in the experiment with MCF-7 cells of 2410 nM.

As for `COc1ccc(C(C)=C(c2ccc(O)cc2)c2ccc(Cl)cc2)cc1F` [Compound 3, E/Z-4-[1-(4-Chlorophenyl)-2-(3-fluoro-4-methoxyphenyl)propenyl]-phenol], in the experiment on 60 NCI tumor cell lines, the “anti-proliferative activity (in words)” value was “lacked anti-proliferative activity” and the inhibition at 10 µM came to 2.34%. Further, the “Growth Inhibition on MCF-7 (%)” value in the experiment with MCF-7 cells is “No inhibition”.

`CC(=C(c1ccc(Cl)cc1)c1ccc(OCCCN(C)C)cc1)c1ccccc1` [Compound 5, E/Z-(3-{4-[1-(4-Chloro-phenyl)-2-phenyl-propenyl]-phenoxy}-propyl)-dimethyl-amine]: the inhibition at 10 µM in the experiment with 60 NCI tumor cell lines worked out at 15.4%; in the experiment on MCF-7 cells, 55%.

Consider `COc1cc(C(C)=C(c2ccc(Cl)cc2)c2ccc(OCCCN(C)C)cc2)ccc1F` [Compound 22, E/Z-(3-{4-[1-(4-Chlorophenyl)-2-(4-fluoro-3-methoxyphenyl)-propenyl]-phenoxy}-propyl)-dimethyl-amine], for which the inhibition at 10 µM with 60 NCI tumor cell lines amounted to 18.6%; with MCF-7 cells it was 33.2%.

In the case of `COc1ccc(C(C)=C(c2ccc(Cl)cc2)c2ccc(OCCN3CCOCC3)cc2)cc1` [Compound 13, E/Z-4-(2-{4-[1-(4-Chloro-phenyl)-2-(4-methoxy-phenyl)-propenyl]-phenoxy}-ethyl)-morpholine], in the experiment on 60 NCI tumor cell lines, the “anti-proliferative activity (in words)” value is on record as “lacked anti-proliferative activity”. Further, the inhibition at 10 µM in the experiment on 60 NCI tumor cell lines was 7.86%; in the experiment with MCF-7 cells, 1.21%.

For `COc1ccc(C(C)=C(c2ccc(Cl)cc2)c2ccc(OCCN(C)C)cc2)cc1F` [Compound 20, E/Z-(2-{4-[1-(4-Chlorophenyl)-2-(3-fluoro-4-methoxyphenyl)-propenyl]-phenoxy}-ethyl)-dimethyl-amine], the results for the inhibition at 10 µM in the experiment with 60 NCI tumor cell lines and in the experiment on MCF-7 cells were 47% and 68.2%, respectively.

For `COc1ccc(C(C)=C(c2ccc(Cl)cc2)c2ccc(OCCN3CCCC3)cc2)cc1` [Compound 11, E/Z-1-(2-{4-[1-(4-Chloro-phenyl)-2-(4-methoxy-phenyl)-propenyl]-phenoxy}-ethyl)-pyrrolidine], the inhibition at 10 µM with 60 NCI tumor cell lines was 67.8%. In the experiment on MCF-7 cells, this compound registered an inhibition at 10 µM of 87% and a GI50 of 890 nM.

As for `COc1cc(C(C)=C(c2ccc(Cl)cc2)c2ccc(OCCN3CCOCC3)cc2)ccc1F` [Compound 25, E/Z-4-(2-{4-[1-(4-Chlorophenyl)-2-(4-fluoro-3-methoxyphenyl)-propenyl]-phenoxy}-ethyl)-morpholine], in the experiment on 60 NCI tumor cell lines, the “anti-proliferative activity (in words)” value was “lacked anti-proliferative activity” and 10 µM produced 12.8% inhibition. Further, the inhibition at 10 µM in the experiment with MCF-7 cells worked out at 2.75%.

Regarding `COc1ccc(C(C)=C(c2ccc(Cl)cc2)c2ccc(OCCN3CCOCC3)cc2)cc1F` [Compound 18, E/Z-4-(2-{4-[1-(4-Chlorophenyl)-2-(3-fluoro-4-methoxyphenyl)-propenyl]-phenoxy}-ethyl)-morpholine], in the experiment on 60 NCI tumor cell lines, the “anti-proliferative activity (in words)” value was “lacked anti-proliferative activity” and the inhibition at 10 µM came to 4.23%. Also, in the experiment on MCF-7 cells, the “Growth Inhibition on MCF-7 (%)” value is “No inhibition”.

`COc1ccc(C(C)=C(c2ccc(Cl)cc2)c2ccc(OCCN3CCCCC3)cc2)cc1F` [Compound 17, E/Z-1-(2-{4-[1-(4-Chlorophenyl)-2-(3-fluoro-4-methoxyphenyl)-propenyl]-phenoxy}-ethyl)-piperidine] registered an inhibition at 10 µM in the experiment on 60 NCI tumor cell lines of 69.1%. In the experiment on MCF-7 cells, this compound returned an inhibition at 10 µM of 85% and a GI50 of 3340 nM.

For the compound `COc1ccc(C(C)=C(c2ccc(Cl)cc2)c2ccc(OCCCN(C)C)cc2)cc1` [Compound 10, E/Z-(3-{4-[1-(4-Chloro-phenyl)-2-(4-methoxy-phenyl)-propenyl]-phenoxy}-propyl)-dimethyl-amine], the inhibition at 10 µM with 60 NCI tumor cell lines stood at 33.4%; in the experiment on MCF-7 cells, 63.1%.

For the compound `CC(=C(c1ccc(Cl)cc1)c1ccc(OCCN2CCCCCC2)cc1)c1ccccc1` [Compound 9, E/Z-1-(2-{4-[1-(4-Chloro-phenyl)-2-phenyl-propenyl]-phenoxy}-ethyl)-azepane], the inhibition at 10 µM is 25.4% in the experiment on 60 NCI tumor cell lines and 24% in the experiment on MCF-7 cells.

On to `CCN(CC)CCOc1ccc(C(=C(C)c2ccc(OC)c(F)c2)c2ccc(Cl)cc2)cc1` [Compound 21, E/Z-(2-{4-[1-(4-Chlorophenyl)-2-(3-fluoro-4-methoxyphenyl)-propenyl]-phenoxy}-ethyl)-diethyl-amine], for which the inhibition at 10 µM in the experiment with 60 NCI tumor cell lines was determined as 31.2%; in the experiment with MCF-7 cells, 29.7%.

With `COc1ccc(C(C)=C(c2ccc(Cl)cc2)c2ccc(OCCN3CCCCCC3)cc2)cc1` [Compound 14, E/Z-1-(2-{4-[1-(4-Chloro-phenyl)-2-(4-methoxy-phenyl)-propenyl]-phenoxy}-ethyl)-azepane], the inhibition at 10 µM in the experiment on 60 NCI tumor cell lines was found to be 47.3%; in the experiment on MCF-7 cells, 63.5%.

On to `COc1ccc(C(C)=C(c2ccc(Cl)cc2)c2ccc(OCCCN(C)C)cc2)cc1F` [Compound 15, E/Z-(3-{4-[1-(4-Chlorophenyl)-2-(3-fluoro-4-methoxyphenyl)-propenyl]-phenoxy}-propyl)-dimethyl-amine], for which the inhibition at 10 µM stood at 47.9% in the experiment with 60 NCI tumor cell lines and 87% with MCF-7 cells.

For the compound `COc1ccc(C(C)=C(c2ccc(Cl)cc2)c2ccc(OCCN3CCCCC3)cc2)cc1` [Compound 12, E/Z-1-(2-{4-[1-(4-Chloro-phenyl)-2-(4-methoxy-phenyl)-propenyl]-phenoxy}-ethyl)-piperidine], testing at 10 µM with 60 NCI tumor cell lines gave an inhibition of 55.2%. In the experiment with MCF-7 cells, this compound registered an inhibition at 10 µM of 79.7% and a GI50 of 600 nM.
